Results as given in patent US20260035365A1, “1H-PYRROLO[3,2-B]PYRIDINE DERIVATIVES AS IRREVERSIBLE INHIBITORS OF MUTANT EGFR FOR THE TREATMENT OF CANCER” (Bayer Aktiengesellschaft, priority 2022, published 2026).

What was measured:
[1] = target: mutEGFR (D770_N771insSVD) (Homo sapiens, UniProt P00533, INS767SVD); test: Exon20-mutant-EGFR (D770_N771insSVD) TR-FRET kinase assay; type: biochemical; settings: 2 mM ATP, 15 min preincubation
How it was run: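 GST-fused human EGFR fragment R669-A1210 carrying the SVD insertion, Sf9-expressed, typically 15 pg/μl, was preincubated with compound for 15 min at 22° C in pH 7.0 Hepes/MgCl2 buffer. Phosphorylation was read by HTRF (665/620 nm ratio), normalised to no-inhibitor and no-enzyme controls.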

[2] = target: mutEGFR (D770_N771insNPG, T790); test: mutEGFR (D770_N771insNPG, T790) kinase assay; type: biochemical, human
Chain of mutEGFR (D770_N771insNPG, T790) (P00533 with tags, fused parts or gaps INS770NPG limits assumed): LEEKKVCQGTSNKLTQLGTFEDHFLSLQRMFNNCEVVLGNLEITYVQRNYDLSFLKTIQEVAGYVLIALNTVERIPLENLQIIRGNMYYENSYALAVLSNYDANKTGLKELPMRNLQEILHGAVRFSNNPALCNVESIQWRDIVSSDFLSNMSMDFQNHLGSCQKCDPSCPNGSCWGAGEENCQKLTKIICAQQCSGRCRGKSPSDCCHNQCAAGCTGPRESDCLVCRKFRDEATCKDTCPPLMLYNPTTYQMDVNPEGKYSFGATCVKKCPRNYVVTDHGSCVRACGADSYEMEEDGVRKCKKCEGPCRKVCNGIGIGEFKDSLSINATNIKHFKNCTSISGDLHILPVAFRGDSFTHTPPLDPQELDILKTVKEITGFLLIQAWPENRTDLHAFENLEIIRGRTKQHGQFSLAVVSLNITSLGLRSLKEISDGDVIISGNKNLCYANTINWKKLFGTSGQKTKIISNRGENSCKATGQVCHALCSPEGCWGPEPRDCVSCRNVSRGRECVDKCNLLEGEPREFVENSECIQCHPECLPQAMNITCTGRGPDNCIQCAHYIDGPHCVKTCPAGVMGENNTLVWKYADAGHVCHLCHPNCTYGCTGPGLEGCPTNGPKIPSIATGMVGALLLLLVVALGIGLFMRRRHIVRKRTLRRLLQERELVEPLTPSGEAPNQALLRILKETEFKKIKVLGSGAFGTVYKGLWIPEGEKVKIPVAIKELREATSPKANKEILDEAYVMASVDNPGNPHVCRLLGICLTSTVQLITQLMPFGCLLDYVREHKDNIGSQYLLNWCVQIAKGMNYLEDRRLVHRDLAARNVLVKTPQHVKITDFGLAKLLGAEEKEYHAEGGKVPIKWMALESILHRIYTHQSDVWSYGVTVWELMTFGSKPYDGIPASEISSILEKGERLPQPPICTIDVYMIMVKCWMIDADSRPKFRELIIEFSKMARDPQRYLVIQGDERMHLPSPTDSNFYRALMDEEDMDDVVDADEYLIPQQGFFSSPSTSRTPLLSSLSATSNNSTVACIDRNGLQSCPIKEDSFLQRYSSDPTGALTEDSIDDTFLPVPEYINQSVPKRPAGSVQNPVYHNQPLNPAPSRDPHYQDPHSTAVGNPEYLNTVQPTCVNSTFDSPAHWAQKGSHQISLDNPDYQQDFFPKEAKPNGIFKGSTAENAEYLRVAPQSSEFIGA

BA/F3 (insSVD) cells = test: Ba/F3 cell survival assay (Cell Titer-Glo), EGFR-insSVD; type: cell-based; settings: Mus musculus, BaF3, 48 h, without IL-3, with EGF
How it was run: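 Ba/F3 cells stably expressing EGFR-insSVD or insSVD T790M via retrovirus (puromycin-selected), switched from IL-3 to 10 ng/mL EGF for 2 days, then plated at 4000 cells/well. Compound added by 100 nL pin transfer; 48 h at 37° C. Viability by CellTiter-Glo luminescence.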

Chain of mutEGFR (D770_N771insSVD) (P00533 with tags, fused parts or gaps INS767SVD limits assumed): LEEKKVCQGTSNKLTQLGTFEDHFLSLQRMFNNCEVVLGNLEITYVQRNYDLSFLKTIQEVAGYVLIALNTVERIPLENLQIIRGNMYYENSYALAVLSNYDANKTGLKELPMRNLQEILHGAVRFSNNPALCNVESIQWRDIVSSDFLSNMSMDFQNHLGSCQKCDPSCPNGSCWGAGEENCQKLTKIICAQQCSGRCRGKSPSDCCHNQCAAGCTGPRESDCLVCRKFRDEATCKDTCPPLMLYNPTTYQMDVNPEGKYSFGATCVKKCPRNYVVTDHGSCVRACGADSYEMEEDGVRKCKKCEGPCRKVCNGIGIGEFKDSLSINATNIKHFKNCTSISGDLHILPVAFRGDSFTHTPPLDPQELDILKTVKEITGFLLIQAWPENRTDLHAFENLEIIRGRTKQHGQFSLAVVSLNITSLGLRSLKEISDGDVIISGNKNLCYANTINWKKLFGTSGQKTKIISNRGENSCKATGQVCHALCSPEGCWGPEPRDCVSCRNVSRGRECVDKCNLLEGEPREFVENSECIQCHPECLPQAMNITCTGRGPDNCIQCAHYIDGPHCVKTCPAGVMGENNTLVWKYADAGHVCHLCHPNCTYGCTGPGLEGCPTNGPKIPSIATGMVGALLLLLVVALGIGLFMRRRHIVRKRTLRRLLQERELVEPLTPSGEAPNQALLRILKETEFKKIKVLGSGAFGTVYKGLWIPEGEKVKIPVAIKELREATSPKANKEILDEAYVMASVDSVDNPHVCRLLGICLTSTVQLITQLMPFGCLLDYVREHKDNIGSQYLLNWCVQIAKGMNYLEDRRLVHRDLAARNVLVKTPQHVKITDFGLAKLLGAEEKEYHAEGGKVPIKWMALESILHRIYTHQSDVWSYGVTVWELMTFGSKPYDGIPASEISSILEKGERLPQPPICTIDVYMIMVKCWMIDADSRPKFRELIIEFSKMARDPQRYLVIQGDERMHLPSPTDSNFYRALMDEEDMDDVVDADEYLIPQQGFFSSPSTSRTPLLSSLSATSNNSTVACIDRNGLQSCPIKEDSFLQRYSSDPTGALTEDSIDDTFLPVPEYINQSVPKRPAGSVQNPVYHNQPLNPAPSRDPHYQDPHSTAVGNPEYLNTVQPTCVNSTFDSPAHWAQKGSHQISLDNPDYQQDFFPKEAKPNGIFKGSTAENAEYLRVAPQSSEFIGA

SMILES | IC50 [1] [nM] | IC50 [2] [nM] | IC50 (BA/F3 (insSVD) cells) [nM]
C=CC(=O)N(C)C[C@H](C)Oc1cnccc1-c1[nH]c2cccnc2c1-c1ccccc1 (stereo in doubt) [Example 133, N-methyl-N-[2-{[4-(3-phenyl-1H-pyrrolo[3,2-b]pyridin-2-yl)pyridin-3-yl]oxy}propyl]prop-2-enamide] | 3470 | 5590 | 9000
C=CC(=O)N1CCC[C@H]1COc1cncc(F)c1-c1[nH]c2cccnc2c1-c1cc(Cl)ccc1F [Example 129, 1-{(2S)-2-[({4-[3-(5-chloro-2-fluorophenyl)-1H-pyrrolo[3,2-b]pyridin-2-yl]-5-fluoropyridin-3-yl}oxy)methyl]pyrrolidin-1-yl}prop-2-en-1-one] | 1 | 92.6 | 110
C=CS(=O)(=O)N(C)CCOc1cnccc1-c1[nH]c2cccnc2c1-c1ccc2ccsc2c1 [Example 62, N-[2-({4-[3-(1-benzothiophen-6-yl)-1H-pyrrolo[3,2-b]pyridin-2-yl]pyridin-3-yl}oxy)ethyl]-N-methylethenesulfonamide] | 1.14 | 3.3 | 326
C#CC(=O)N1CCC(Oc2cnccc2-c2[nH]c3cccnc3c2-c2ccccc2)C1 (racemic) [Example 117, 1-[(3RS)-3-{[4-(3-phenyl-1H-pyrrolo[3,2-b]pyridin-2-yl)pyridin-3-yl]oxy}pyrrolidin-1-yl]prop-2-yn-1-one] | 90.2 | 296 | 4430
C=CC(=O)N1CCC[C@H]1COc1cnccc1-c1[nH]c2cccnc2c1-c1cccc(F)c1F [Example 86, 1-{(2S)-2-[({4-[3-(2,3-difluorophenyl)-1H-pyrrolo[3,2-b]pyridin-2-yl]pyridin-3-yl}oxy)methyl]pyrrolidin-1-yl}prop-2-en-1-one] | 0.911 | 3.99 | 67
C=CC(=O)N(C)CCOc1cnccc1-c1[nH]c2cccnc2c1-c1cc(Cl)ccc1F [Example 43, N-[2-({4-[3-(5-chloro-2-fluorophenyl)-1H-pyrrolo[3,2-b]pyridin-2-yl]pyridin-3-yl}oxy)ethyl]-N-methylprop-2-enamide] | 11.7 | 33.2 | 538
C=CS(=O)(=O)N1CCC(Oc2cnccc2-c2[nH]c3cccnc3c2-c2cccc(Cl)c2)C1 (racemic) [Example 121, 3-(3-chlorophenyl)-2-(3-{[(3RS)-1-(ethenesulfonyl)pyrrolidin-3-yl]oxy}pyridin-4-yl)-1H-pyrrolo[3,2-b]pyridine] | 6.91 | 18 | 497
CN(C)CC#CC(=O)N1CCC[C@H]1COc1cnccc1-c1[nH]c2cccnc2c1-c1ccccc1 [Example 100, 4-(dimethylamino)-1-[(2S)-2-({[4-(3-phenyl-1H-pyrrolo[3,2-b]pyridin-2-yl)pyridin-3-yl]oxy}methyl)pyrrolidin-1-yl]but-2-yn-1-one] | 1.11 | 4.67 | 57.5
C=CC(=O)N1CCC[C@H]1COc1cnccc1-c1[nH]c2cccnc2c1-c1ccc(F)c(OC(F)(F)F)c1 [Example 106, 1-[(2S)-2-{[(4-{3-[4-fluoro-3-(trifluoromethoxy)phenyl]-1H-pyrrolo[3,2-b]pyridin-2-yl}pyridin-3-yl)oxy]methyl}pyrrolidin-1-yl]prop-2-en-1-one] | 13.3 | 77.4 | 1630
C=CC(=O)N(C)CCOc1cnccc1-c1[nH]c2cccnc2c1-c1cc(C(F)(F)F)ccc1F [Example 51, N-{2-[(4-{3-[2-fluoro-5-(trifluoromethyl)phenyl]-1H-pyrrolo[3,2-b]pyridin-2-yl}pyridin-3-yl)oxy]ethyl}-N-methylprop-2-enamide] | 75.6 | 132 | 1920
C=CC(=O)N1CCC[C@H]1COc1cnccc1-c1[nH]c2cccnc2c1-c1ccc2ccoc2c1 [Example 82, 1-{(2S)-2-[({4-[3-(1-benzofuran-6-yl)-1H-pyrrolo[3,2-b]pyridin-2-yl]pyridin-3-yl}oxy)methyl]pyrrolidin-1-yl}prop-2-en-1-one] | 0.267 | 0.837 | 36.8
C=CS(=O)(=O)N(C)CCOc1cnccc1-c1[nH]c2cccnc2c1-c1cc(Cl)ccc1F [Example 60, N-[2-({4-[3-(5-chloro-2-fluorophenyl)-1H-pyrrolo[3,2-b]pyridin-2-yl]pyridin-3-yl}oxy)ethyl]-N-methylethenesulfonamide] | 0.809 | 2.02 | 154
C=CS(=O)(=O)N(C)CCOc1cnccc1-c1[nH]c2cccnc2c1-c1cccc(OC)c1 [Example 69, N-[2-({4-[3-(3-methoxyphenyl)-1H-pyrrolo[3,2-b]pyridin-2-yl]pyridin-3-yl}oxy)ethyl]-N-methylethenesulfonamide] | 3.65 | 8.7 | 287
C=CC(=O)N1CCC[C@H]1COc1cnccc1-c1[nH]c2cccnc2c1-c1cccc(C#N)c1 [Example 87, 3-[2-(3-{[(2S)-1-(prop-2-enoyl)pyrrolidin-2-yl]methoxy}pyridin-4-yl)-1H-pyrrolo[3,2-b]pyridin-3-yl]benzonitrile] | 15.2 | 33.8 | 759
CC#CC(=O)N1CCC[C@H]1COc1cnccc1-c1[nH]c2cccnc2c1-c1ccccc1 [Example 94, 1-[(2S)-2-({[4-(3-phenyl-1H-pyrrolo[3,2-b]pyridin-2-yl)pyridin-3-yl]oxy}methyl)pyrrolidin-1-yl]but-2-yn-1-one] | 365 | > 1630 | 2440
C=CC(=O)N(C)CCOc1cnccc1-c1[nH]c2cccnc2c1-c1cc(F)cc(F)c1 [Example 52, N-[2-({4-[3-(3,5-difluorophenyl)-1H-pyrrolo[3,2-b]pyridin-2-yl]pyridin-3-yl}oxy)ethyl]-N-methylprop-2-enamide] | 77.1 | 204 | 3100
CN(C)C/C=C/C(=O)N1CCC[C@H]1COc1cnccc1-c1[nH]c2cccnc2c1-c1cc(Cl)ccc1F [Example 97, (2E)-1-{(2S)-2-[({4-[3-(5-chloro-2-fluorophenyl)-1H-pyrrolo[3,2-b]pyridin-2-yl]pyridin-3-yl}oxy)methyl]pyrrolidin-1-yl}-4-(dimethylamino)but-2-en-1-one] | 2.03 | 8.62 | 179
C#CC(=O)N1CCC[C@H]1COc1cnccc1-c1[nH]c2cccnc2c1-c1ccccc1 [Example 93, 1-[(2S)-2-({[4-(3-phenyl-1H-pyrrolo[3,2-b]pyridin-2-yl)pyridin-3-yl]oxy}methyl)pyrrolidin-1-yl]prop-2-yn-1-one] | 1.02 | 3.14 | 55.3
C=CC(=O)N(C)CCOc1cnccc1-c1[nH]c2cccnc2c1-c1cc(CC)ccc1F [Example 48, N-[2-({4-[3-(5-ethyl-2-fluorophenyl)-1H-pyrrolo[3,2-b]pyridin-2-yl]pyridin-3-yl}oxy)ethyl]-N-methylprop-2-enamide] | 36.8 | 109 | 962
C=CC(=O)N1CCC[C@H]1COc1cnccc1-c1[nH]c2cccnc2c1-c1cccc(OC)c1 [Example 83, 1-{(2S)-2-[({4-[3-(3-methoxyphenyl)-1H-pyrrolo[3,2-b]pyridin-2-yl]pyridin-3-yl}oxy)methyl]pyrrolidin-1-yl}prop-2-en-1-one] | 2.09 | 7.63 | 132
